Active and inactive are the calls of the source. Cut-off read from the data, not from the text of the source: actives have a measured IC50 and inactives only a lower limit.

In the assay the target is Envelope glycoprotein gp160 (Human immunodeficiency virus 1, UniProt Q6QLK5). Nature of the assay: cell-free HIV fusion peptide-binding blockers – biochemical, uHTS, fluorescence dequenching, […] (AID 1986).
Chain of Envelope glycoprotein gp160 (Q6QLK5 whole entry, the tested form may be a part): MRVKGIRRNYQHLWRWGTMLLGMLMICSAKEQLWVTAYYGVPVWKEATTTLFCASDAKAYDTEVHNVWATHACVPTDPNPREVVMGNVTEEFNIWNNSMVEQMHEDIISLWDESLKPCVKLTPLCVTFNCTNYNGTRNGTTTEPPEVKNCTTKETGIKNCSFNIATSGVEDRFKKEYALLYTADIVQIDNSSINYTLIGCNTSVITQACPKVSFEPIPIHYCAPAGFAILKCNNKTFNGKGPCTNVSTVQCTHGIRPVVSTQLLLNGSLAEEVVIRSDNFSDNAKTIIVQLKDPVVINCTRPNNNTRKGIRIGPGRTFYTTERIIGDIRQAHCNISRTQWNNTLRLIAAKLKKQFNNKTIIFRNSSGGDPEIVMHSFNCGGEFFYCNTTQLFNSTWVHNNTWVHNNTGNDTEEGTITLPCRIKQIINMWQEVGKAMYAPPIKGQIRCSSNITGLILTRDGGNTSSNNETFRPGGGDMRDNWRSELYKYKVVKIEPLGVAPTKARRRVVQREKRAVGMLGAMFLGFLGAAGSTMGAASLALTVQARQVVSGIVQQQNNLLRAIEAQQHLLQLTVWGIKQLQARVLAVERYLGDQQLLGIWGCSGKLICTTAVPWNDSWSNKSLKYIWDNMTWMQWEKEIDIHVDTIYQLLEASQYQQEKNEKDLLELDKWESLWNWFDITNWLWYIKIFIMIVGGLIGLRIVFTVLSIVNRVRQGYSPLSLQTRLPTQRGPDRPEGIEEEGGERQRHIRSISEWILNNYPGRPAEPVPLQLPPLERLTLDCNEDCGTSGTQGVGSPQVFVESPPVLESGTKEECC
As a reminder, the IC50 is the concentration at which inhibition is half-maximal. In the case of `Cc1cccc(C)c1-n1cccc1/C=C1\SC(=S)N(c2cccc(C(=O)O)c2)C1=O`, the IC50 was 22.4 µM (active).
In the case of `CCCOc1ccc(C(=O)NNC(=S)NC(=O)c2cc(-c3ccccc3)nc3ccccc23)cc1`, the IC50 is 30.9 µM (active).
Regarding `CCC(C)(C)C1CCc2c(sc(NC(=O)c3ccccc3C(=O)O)c2C#N)C1` (stereo not drawn), the IC50 was 12.9 µM (active).

Values taken from ChEMBL document CHEMBL1201862, “PubChem BioAssay data set” (2004).
